# From BindingDB's records for PubMed 30125720 (Southern Medical University, 2018)
# Test: Inhibition of TGF-beta (unknown origin)
row,IC50 [nM],Compound
1,4.3,"CCc1cnn(-c2cccc(C)n2)c1-c1cc2cnccc2s1 [US9090625, 4]"
2,0.34,CC(=O)Nc1cc(Nc2nc(-c3ccc(F)c(C)n3)nc3[nH]cnc23)ccn1
3,970,O=c1[nH]cc(-c2cccc(CO)c2)cc1-c1nc2cc(N3CCNCC3)ccc2[nH]1
